≈ marks a conversion by molar mass, not a printed value.
Experiments:
[1] = Renal toxicity in Albino mouse assessed as change in renal corpuscles at 50 to 2000 mg/kg, po measured after 14 days; format: organism-based; details: in vivo, 336 h, dose 50-2000 mg/kg, time 14 day
[2] = Acute toxicity in Albino mouse assessed as change in monocytes at 50 to 2000 mg/kg, po measured after 14 days (reference value: 1%); format: organism-based; details: in vivo, 336 h, dose 50-2000 mg/kg, time 14 day
[3] = tested on: Mycolicibacterium smegmatis; experiment: Antibacterial activity against Mycobacterium smegmatis ATCC 14468 assessed as log2 fold change in adenosine metabolite level by mass spectrometry analysis; format: functional
[4] = Hepatotoxicity in Albino mouse assessed as change in portal tracks at 50 to 2000 mg/kg, po measured after 14 days; format: toxicity, organism-based; details: in vivo, 336 h, dose 50-2000 mg/kg, time 14 day
[5] = tested on: Mycolicibacterium smegmatis; experiment: Antibacterial activity against Mycobacterium smegmatis ATCC 14468 assessed as log2 fold change in PknH_C domain-containing protein expression at 3 ug/ml incubated for 12 hrs by mass spectrometric analysis; format: functional; details: dose 3 µg/ml
[6] = Hepatotoxicity in Albino mouse assessed as change in portal vein at 50 to 2000 mg/kg, po measured after 14 days; format: toxicity, organism-based; details: in vivo, 336 h, dose 50-2000 mg/kg, time 14 day
[7] = tested on: Mycolicibacterium smegmatis; experiment: Antibacterial activity against Mycobacterium smegmatis ATCC 14468 assessed as log2 fold change in cytochrome P450 107B1 expression at 3 ug/ml incubated for 12 hrs by mass spectrometric analysis; format: functional; details: dose 3 µg/ml
[8] = Acute toxicity in Albino mouse assessed as change in total leucocyte count at 50 to 2000 mg/kg, po measured after 14 days (reference value: 7400 mm3); format: organism-based; details: in vivo, 336 h, dose 50-2000 mg/kg, time 14 day
[9] = Cytotoxicity against african green monkey Vero cells assessed as cell viability at 12.5 ug/ml by MTT assay; format: toxicity, cell-based; details: chlorocebus sabaeus, at 12.5 µg/mL, read-out: Activity
[10] = Pulmonary toxicity in Albino mouse assessed as change in bronchi structure at 50 to 2000 mg/kg, po measured after 14 days; format: organism-based; details: in vivo, 336 h, dose 50-2000 mg/kg, time 14 day
[11] = tested on: Mycolicibacterium smegmatis; experiment: Antibacterial activity against Mycobacterium smegmatis ATCC 14468 assessed as log2 fold change in l-Glutathione oxidized metabolite level by mass spectrometry analysis; format: functional
[12] = tested on: Mycolicibacterium smegmatis; experiment: Antibacterial activity against Mycobacterium smegmatis ATCC 14468 assessed as log2 fold change in TnpC protein expression at 3 ug/ml incubated for 12 hrs by mass spectrometric analysis; format: functional; details: dose 3 µg/ml
[13] = Acute toxicity in Albino mouse assessed as change in SGPT count at 50 to 2000 mg/kg, po measured after 14 days (reference value: 52 IU/L); format: organism-based; details: in vivo, 336 h, dose 50-2000 mg/kg, time 14 day
[14] = tested on: Mycolicibacterium smegmatis; experiment: Antibacterial activity against Mycobacterium smegmatis ATCC 14468 assessed as log2 fold change in signal transduction histidine kinase expression at 3 ug/ml incubated for 12 hrs by mass spectrometric analysis; format: functional; details: dose 3 µg/ml
[15] = Pulmonary toxicity in Albino mouse assessed as change in alveoli structure at 50 to 2000 mg/kg, po measured after 14 days; format: organism-based; details: in vivo, 336 h, dose 50-2000 mg/kg, time 14 day
[16] = Pulmonary toxicity in Albino mouse assessed as appearance of goblet cells at 50 to 2000 mg/kg, po measured after 14 days; format: organism-based; details: in vivo, 336 h, dose 50-2000 mg/kg, time 14 day
[17] = tested on: Mycolicibacterium smegmatis; experiment: Antibacterial activity against Mycobacterium smegmatis ATCC 14468 assessed as log2 fold change in cytochrome bc1 complex Rieske-iron-sulfur subunit expression at 3 ug/ml incubated for 12 hrs by mass spectrometric analysis; format: functional; details: dose 3 µg/ml
[18] = tested on: Mycolicibacterium smegmatis; experiment: Antibacterial activity against Mycobacterium smegmatis ATCC 14468 assessed as log2 fold change in integral membrane protein expression at 3 ug/ml incubated for 12 hrs by mass spectrometric analysis; format: functional; details: dose 3 µg/ml
[19] = tested on: Mycolicibacterium smegmatis; experiment: Antibacterial activity against Mycobacterium smegmatis ATCC 14468 assessed as log2 fold change in shikimate transporter expression at 3 ug/ml incubated for 12 hrs by mass spectrometric analysis; format: functional; details: dose 3 µg/ml
[20] = Cytotoxicity against african green monkey Vero cells assessed as cell viability at 25 ug/ml by MTT assay; format: toxicity, cell-based; details: chlorocebus sabaeus, at 25 µg/mL, read-out: Activity
[21] = Renal toxicity in Albino mouse assessed as change in Bowman's capsule at 50 to 2000 mg/kg, po measured after 14 days; format: organism-based; details: in vivo, 336 h, dose 50-2000 mg/kg, time 14 day
[22] = Acute toxicity in Albino mouse assessed as change in SGOT count at 50 to 2000 mg/kg, po measured after 14 days (reference value: 42 IU/L); format: organism-based; details: in vivo, 336 h, dose 50-2000 mg/kg, time 14 day
[23] = Acute toxicity in Albino mouse assessed as change in hemoglobin level at 50 to 2000 mg/kg, po measured after 14 days (reference value: 12.8 g/dl); format: organism-based; details: in vivo, 336 h, dose 50-2000 mg/kg, time 14 day
[24] = tested on: Mycolicibacterium smegmatis; experiment: Antibacterial activity against Mycobacterium smegmatis ATCC 14468 assessed as log2 fold change in histidine kinase expression at 3 ug/ml incubated for 12 hrs by mass spectrometric analysis; format: functional; details: dose 3 µg/ml
[25] = tested on: Mycolicibacterium smegmatis; experiment: Antibacterial activity against Mycobacterium smegmatis ATCC 14468 assessed as log2 fold change in citrate transporter expression at 3 ug/ml incubated for 12 hrs by mass spectrometric analysis; format: functional; details: dose 3 µg/ml
[26] = tested on: Mycolicibacterium smegmatis; experiment: Antibacterial activity against Mycobacterium smegmatis ATCC 14468 assessed as log2 fold change in GluD expression at 3 ug/ml incubated for 12 hrs by mass spectrometric analysis; format: functional; details: dose 3 µg/ml
[27] = Cytotoxicity against african green monkey Vero cells assessed as cell viability at 3.125 ug/ml by MTT assay; format: toxicity, cell-based; details: chlorocebus sabaeus, at 3.125 µg/mL, read-out: Activity
[28] = tested on: Mycolicibacterium smegmatis; experiment: Antibacterial activity against Mycobacterium smegmatis ATCC 14468 assessed as log2 fold change in transposase expression at 3 ug/ml incubated for 12 hrs by mass spectrometric analysis; format: functional; details: dose 3 µg/ml
[29] = tested on: Mycolicibacterium smegmatis; experiment: Antibacterial activity against Mycobacterium smegmatis ATCC 14468 assessed as log2 fold change in MscS expression at 3 ug/ml incubated for 12 hrs by mass spectrometric analysis; format: functional; details: dose 3 µg/ml
[30] = tested on: Mycobacterium tuberculosis; experiment: Antitubercular activity against Mycobacterium tuberculosis H37Rv incubated for 5 days by microtiter plate method; format: functional; details: 120 h, time 5 day
[31] = tested on: Mycolicibacterium smegmatis; experiment: Antibacterial activity against Mycobacterium smegmatis ATCC 14468 assessed as log2 fold change in TrkA expression at 3 ug/ml incubated for 12 hrs by mass spectrometric analysis; format: functional; details: dose 3 µg/ml
[32] = tested on: Mycolicibacterium smegmatis; experiment: Antibacterial activity against Mycobacterium smegmatis ATCC 14468 assessed as log2 fold change in (22S)-22-hydroxycampest-4-en-3-one metabolite level by mass spectrometry analysis; format: functional
[33] = Acute toxicity in Albino mouse assessed as change in lymphocytes at 50 to 2000 mg/kg, po measured after 14 days (reference value: 21%); format: organism-based; details: in vivo, 336 h, dose 50-2000 mg/kg, time 14 day
[34] = tested on: Mycolicibacterium smegmatis; experiment: Antibacterial activity against Mycobacterium smegmatis ATCC 14468 assessed as log2 fold change in l-Glutamic acid metabolite level by mass spectrometry analysis; format: functional
[35] = tested on: Mycolicibacterium smegmatis; experiment: Antibacterial activity against Mycobacterium smegmatis ATCC 14468 assessed as log2 fold change in N-Acetyl-l-glutamic acid metabolite level by mass spectrometry analysis; format: functional
[36] = tested on: Mycolicibacterium smegmatis; experiment: Antibacterial activity against Mycobacterium smegmatis ATCC 14468 assessed as log2 fold change in methylase expression at 3 ug/ml incubated for 12 hrs by mass spectrometric analysis; format: functional; details: dose 3 µg/ml
[37] = Acute toxicity in Albino mouse assessed as change in ALP level at 50 to 2000 mg/kg, po measured after 14 days (reference value: 28 IU/L); format: organism-based; details: in vivo, 336 h, dose 50-2000 mg/kg, time 14 day
[38] = tested on: Mycolicibacterium smegmatis; experiment: Antibacterial activity against Mycobacterium smegmatis ATCC 14468 assessed as log2 fold change in NADH-quinone oxidoreductase subunit C expression at 3 ug/ml incubated for 12 hrs by mass spectrometric analysis; format: functional; details: dose 3 µg/ml

With `COc1ccc(C2C(Cl)C(=O)N2C2=C(Cl)C(=O)c3ccccc3C2=O)cc1` (centres undefined) the Activity [1] was “Non-Toxic”, the Activity [2] was 1% and the log2FC [3] was -2.55. For the same molecule, the Activity [4] was “Non-Toxic”, the log2FC [5] was -6.64 and the Activity [6] was “Non-Toxic”. The log2FC [7] was 6.64, the Activity [8] was 9600 mm3 and the viability at 12.5 ug/ml [9] was 68.1%. For the same molecule, the Activity [10] was “Non-Toxic”, the log2FC [11] was -1.04 and the log2FC [12] was -6.64. For the same molecule, the Activity [13] was 64 IU/L, the log2FC [14] was -6.64 and the Activity [15] was “Non-Toxic”. For the same molecule, the Activity [16] was “Non-Toxic”, the log2FC [17] was 1.4 and the log2FC [18] was -6.64. The log2FC [19] was -6.64, the viability at 25 ug/ml [20] was 37.6% and the Activity [21] was “Non-Toxic”. It also gave an Activity [22] of 95 IU/L, an Activity [23] of 13.9 g/dL and a log2FC [24] of -6.64. For the same molecule, the log2FC [25] was -1.76, the log2FC [26] was -1.11 and the viability at 3.125 ug/ml [27] was 100%. The log2FC [28] was -1.22, the log2FC [29] was -2.45 and the MIC [30] was 31.1 µM (≈ 12.5 µg/mL). It also gave a log2FC [31] of -6.64, a log2FC [32] of 2.67 and an Activity [33] of 32%. For the same molecule, the log2FC [34] was -1.49, the log2FC [35] was -1.34 and the log2FC [36] was -6.64. For the same molecule, the Activity [37] was 44 IU/L and the log2FC [38] was -1.9.

In the case of `CN(C)c1ccc(C2C(Cl)C(=O)N2C2=C(Cl)C(=O)c3ccccc3C2=O)cc1` (centres undefined), the Activity [1] is reported as “Non-Toxic”, the Activity [2] is reported as 1% and the log2FC [3] is reported as -1.69. For the same molecule, the Activity [4] was “Non-Toxic”, the log2FC [5] was -6.64 and the Activity [6] was “Non-Toxic”. The log2FC [7] was 6.64, the Activity [8] was 9300 mm3 and the viability at 12.5 ug/ml [9] was 79.5%. The Activity [10] was “Non-Toxic”, the log2FC [11] was -1.8 and the log2FC [12] was -6.64. The Activity [13] was 73 IU/L, the log2FC [14] was -6.64 and the Activity [15] was “Non-Toxic”. For the same molecule, the Activity [16] was “Non-Toxic”, the log2FC [17] was 1.61 and the log2FC [18] was -1.06. For the same molecule, the log2FC [19] was -6.64, the viability at 25 ug/ml [20] was 40.9% and the Activity [21] was “Non-Toxic”. For the same molecule, the Activity [22] was 109 IU/L, the Activity [23] was 14.3 g/dL and the log2FC [24] was -6.64. For the same molecule, the log2FC [25] was -1.02, the log2FC [26] was -1.78 and the viability at 3.125 ug/ml [27] was 100%. It also gave a log2FC [28] of -6.64, a log2FC [29] of -3.03 and an MIC [30] of 15.1 µM (≈ 6.25 µg/mL). It also gave a log2FC [31] of -6.64, a log2FC [32] of 3.41 and an Activity [33] of 34%. The log2FC [34] was -0.85, the log2FC [35] was -1.04 and the log2FC [36] was -1.9. For the same molecule, the Activity [37] was 52 IU/L and the log2FC [38] was -1.41.

In the case of `O=C1C(Cl)=C(Cl)C(=O)c2ccccc21` [Dichlon], the Activity [1] is reported as “Non-Toxic”, the Activity [2] is reported as 1% and the log2FC [3] is reported as -1.31. For the same molecule, the Activity [4] was “Non-Toxic”, the log2FC [5] was -6.64 and the Activity [6] was “Non-Toxic”. The log2FC [7] was 6.64, the Activity [8] was 10400 mm3 and the viability at 12.5 ug/ml [9] was 100%. For the same molecule, the Activity [10] was “Non-Toxic”, the log2FC [11] was -2.01 and the log2FC [12] was -2.19. The Activity [13] was 17 IU/L, the log2FC [14] was -6.64 and the Activity [15] was “Non-Toxic”. The Activity [16] was “Non-Toxic”, the log2FC [17] was 6.64 and the log2FC [18] was -6.64. For the same molecule, the log2FC [19] was -6.64, the viability at 25 ug/ml [20] was 67.1% and the Activity [21] was “Non-Toxic”. The Activity [22] was 29 IU/L, the Activity [23] was 14.3 g/dL and the log2FC [24] was -6.64. It also gave a log2FC [25] of -3.36, a log2FC [26] of -3.7 and a viability at 3.125 ug/ml [27] of 100%. It also gave a log2FC [28] of -1.92, a log2FC [29] of -4.39 and an MIC [30] of 13.8 µM (≈ 3.12 µg/mL). For the same molecule, the log2FC [31] was -6.64, the log2FC [32] was -2.01 and the Activity [33] was 53%. For the same molecule, the log2FC [34] was -1.59, the log2FC [35] was -0.61 and the log2FC [36] was -1.53. For the same molecule, the Activity [37] was 33 IU/L and the log2FC [38] was -2.08.
